Patent US20240083857A1, “2-Methyl-Quinazolines” (Bayer Pharma Aktiengesellschaft, priority 2017, published 2024)

Legend:
[1] = molecular target: human SOS1 (nucleotide exchange of K-Ras^G12C) (Homo sapiens, UniProt Q07889); experiment: Biochemical assay 2: K-Ras^G12C activation assay by hSOS1 at high GTP concentration (HTRF); conditions: high GTP; read-out: Assay 2 (KRAS-Activation by SOS high GTP) activity expressed as IC50
[2] = molecular target: human SOS1 (loading of human K-Ras^G12C-GDP with fluorescent GTP-analog) (Homo sapiens, UniProt Q07889); experiment: Biochemical assay 3: K-Ras^G12C activation assay by hSOS1 (HTRF); conditions: no GTP; read-out: Assay 3 (KRAS-Activation by SOS no GTP) activity expressed as IC50

Structure (SMILES)	IC50 [1] [µM]	IC50 [2] [µM]
COc1cc2nc(C)nc(N[C@H](C)c3cccc(-c4cn[nH]c4)c3)c2cc1OC(C)C [Example 353, 7-methoxy-2-methyl-6-(propan-2-yloxy)-N-{(1R)-1-[3-(1H-pyrazol-4-yl)phenyl]ethyl}quinazolin-4-amine]	0.42	0.453
COc1cc2nc(C)nc(N[C@H](C)c3cccc(-c4cn[nH]c4)c3)c2cc1OCC1COC1 [Example 354, 7-methoxy-2-methyl-6-(oxetan-3-ylmethoxy)-N-{(1R)-1-[3-(1H-pyrazol-4-yl)phenyl]ethyl}quinazolin-4-amine]	0.516	0.677
CCOc1cc2c(N[C@H](C)c3cccc(-c4cn[nH]c4)c3)nc(C)nc2cc1OC [Example 355, 6-Ethoxy-7-methoxy-2-methyl-N-{(1R)-1-[3-(1H-pyrazol-4-yl)phenyl]ethyl}-quinazolin-4-amine]	0.571	0.714
CCOc1cc2c(N[C@H](C)c3cccc(-c4cnn(CC)c4)c3)nc(C)nc2cc1OC [Example 356, 6-ethoxy-N-{(1R)-1-[3-(1-ethyl-1H-pyrazol-4-yl)phenyl]ethyl}-7-methoxy-2-methylquinazolin-4-amine]	0.777	0.933
COc1cc2nc(C)nc(NC(C)c3ccc(-c4ccccc4-c4cn[nH]c4)s3)c2cc1OC (centres unmarked) [Example 361, 6,7-dimethoxy-2-methyl-N-[1-{5-[2-(1H-pyrazol-4-yl)phenyl]thiophen-2-yl}ethyl]-quinazolin-4-amine]	4.05	8.6
Cc1nc(N[C@H](C)c2cccc(Cl)c2)c2cc(Br)ccc2n1 [Example 363, 6-bromo-N-[(1R)-1-(3-chlorophenyl)ethyl]-2-methylquinazolin-4-amine]	11.3	17.2
COc1cc2nc(C)nc(NC(C)c3ccc(-c4ccccc4CNC4CCCC4)s3)c2cc1OC (centres unmarked) [Example 364, N-[1-(5-{2-[(cyclopentylamino)methyl]phenyl}thiophen-2-yl)ethyl]-6,7-dimethoxy-2-methylquinazolin-4-amine]	0.158	0.217
COc1cc2nc(C)nc(NC(C)c3ccc(-c4ccccc4CNCc4ccccc4)s3)c2cc1OC (centres unmarked) [Example 365, N-[1-(5-{2-[(benzylamino)methyl]phenyl}thiophen-2-yl)ethyl]-6,7-dimethoxy-2-methylquinazolin-4-amine]	0.299	0.353
CCCCNCc1ccccc1-c1ccc(C(C)Nc2nc(C)nc3cc(OC)c(OC)cc23)s1 (centres unmarked) [Example 366, N-[1-(5-{2-[(butylamino)methyl]phenyl}thiophen-2-yl)ethyl]-6,7-dimethoxy-2-methylquinazolin-4-amine]	0.0969	0.136
CCNCc1ccccc1-c1ccc(C(C)Nc2nc(C)nc3cc(OC)c(OC)cc23)s1 (centres unmarked) [Example 367, N-[1-(5-{2-[(ethylamino)methyl]phenyl}thiophen-2-yl)ethyl]-6,7-dimethoxy-2-methylquinazolin-4-amine]	0.0613	0.099
